# Laboratory results: PMC5218480 (PLoS ONE, 2017)
# Test system: MV-4-11 cells
# Experiment: Gene expression microarray analysis (Affymetrix PrimeView) and GSEA
# Format: cell-based, human
# Set-up: RFU PODN (11730768_x_at) / Fold change /veh PODN (11730768_x_at) / RFU LINC00158 (11744669_a_at) / Fold change /veh LINC00158 (11744669_a_at) / RFU DUSP10 (11751237_a_at) / Fold change /veh DUSP10 (11751237_a_at) / RFU ID3 (11757404_x_at) / Fold change /veh ID3 (11757404_x_at) / RFU PLEKHG5 (11737974_s_at) / Fold change /veh PLEKHG5 (11737974_s_at) / RFU LRRC4B (11730491_at) / Fold change /veh LRRC4B (11730491_at) / RFU GIMAP4 (11747438_a_at) / Fold change /veh GIMAP4 (11747438_a_at) / RFU KRT8 (11758183_x_at) / Fold change /veh KRT8 (11758183_x_at) / RFU CNN1 (11734310_a_at) / Fold change /veh CNN1 (11734310_a_at) / RFU VPS37D (11726825_at) / Fold change /veh VPS37D (11726825_at) / RFU C10orf10 (11716522_x_at) / Fold change /veh C10orf10 (11716522_x_at) / RFU KIR2DL2 /// KIR2DL4 /// KIR2DL5A /// KIR2DL5B /// KIR2DS1 /// KIR2DS2 /// KIR2DS3 /// KIR2DS4 /// KIR3DL3 /// KIR3DL3 /// KIR3DS1 (11738374_at) / Fold change /veh KIR2DL2 /// KIR2DL4 /// KIR2DL5A /// KIR2DL5B /// KIR2DS1 /// KIR2DS2 /// KIR2DS3 /// KIR2DS4 /// KIR3DL3 /// KIR3DL3 /// KIR3DS1 (11738374_at) / RFU C1QL1 (11718748_at) / Fold change /veh C1QL1 (11718748_at) / RFU TMPRSS4 (11747572_a_at) / Fold change /veh TMPRSS4 (11747572_a_at) / RFU HAMP (11756126_x_at) / Fold change /veh HAMP (11756126_x_at) / RFU RNFT2 (11725882_a_at) / Fold change /veh RNFT2 (11725882_a_at) / RFU NR4A2 (11747474_a_at) / Fold change /veh NR4A2 (11747474_a_at) / RFU ABCC12 (11746883_a_at) / Fold change /veh ABCC12 (11746883_a_at) / RFU TMEM136 (11760407_x_at) / Fold change /veh TMEM136 (11760407_x_at) / RFU CLDN22 /// WWC2 (11732394_at) / Fold change /veh CLDN22 /// WWC2 (11732394_at) / RFU HLA-DPB1 (11760878_x_at) / Fold change /veh HLA-DPB1 (11760878_x_at) / RFU SPINT1 (11716480_a_at) / Fold change /veh SPINT1 (11716480_a_at) / RFU GAP43 (11754022_s_at) / Fold change /veh GAP43 (11754022_s_at) / RFU A4GNT (11735810_at) / Fold change /veh A4GNT (11735810_at) / RFU PRB3 (11715151_x_at) / Fold change /veh PRB3 (11715151_x_at) / RFU TUBB4B (11761932_at) / Fold change /veh TUBB4B (11761932_at) / RFU CAPN14 (11732068_a_at) / Fold change /veh CAPN14 (11732068_a_at) / RFU TMCC2 (11721928_a_at) / Fold change /veh TMCC2 (11721928_a_at) / RFU IRGQ (11745062_a_at) / Fold change /veh IRGQ (11745062_a_at) / RFU FAM174B (11720279_a_at) / Fold change /veh FAM174B (11720279_a_at) / RFU TMPRSS4 (11748680_a_at) / Fold change /veh TMPRSS4 (11748680_a_at) / RFU FAM212B (11763350_a_at) / Fold change /veh FAM212B (11763350_a_at) / RFU PLEKHG5 (11743358_a_at) / Fold change /veh PLEKHG5 (11743358_a_at) / RFU ZSCAN30 (11745921_a_at) / Fold change /veh ZSCAN30 (11745921_a_at) / RFU CMKLR1 (11741424_a_at) / Fold change /veh CMKLR1 (11741424_a_at) / RFU LOC101060620 /// MAPK8IP1 (11723275_at) / Fold change /veh LOC101060620 /// MAPK8IP1 (11723275_at) / RFU SPTSSB (11747773_x_at) / Fold change /veh SPTSSB (11747773_x_at) / RFU PRSS12 (11739890_at) / Fold change /veh PRSS12 (11739890_at) / RFU BIN1 (11741810_x_at) / Fold change /veh BIN1 (11741810_x_at) / RFU WNT11 (11732464_a_at) / Fold change /veh WNT11 (11732464_a_at) / RFU C10orf10 (11716521_a_at) / Fold change /veh C10orf10 (11716521_a_at) / RFU C5orf56 (11738089_at) / Fold change /veh C5orf56 (11738089_at) / RFU CYB561 (11721691_x_at) / Fold change /veh CYB561 (11721691_x_at) / RFU ANKRD19P (11752326_a_at) / Fold change /veh ANKRD19P (11752326_a_at) / RFU OR2T12 /// OR2T33 /// OR2T8 (11738714_s_at) / Fold change /veh OR2T12 /// OR2T33 /// OR2T8 (11738714_s_at) / RFU VCAN (11748164_a_at) / Fold change /veh VCAN (11748164_a_at) / RFU JSRP1 (11732532_at) / Fold change /veh JSRP1 (11732532_at) / RFU KRTAP10-11 (11738290_x_at) / Fold change /veh KRTAP10-11 (11738290_x_at) / RFU MYO3A (11730013_a_at) / Fold change /veh MYO3A (11730013_a_at) / RFU EBF3 (11725865_a_at) / Fold change /veh EBF3 (11725865_a_at) / RFU CAMK2N1 (11719241_x_at) / Fold change /veh CAMK2N1 (11719241_x_at) / RFU C5orf56 (11738088_a_at) / Fold change /veh C5orf56 (11738088_a_at) / RFU OLFML3 (11715873_a_at) / Fold change /veh OLFML3 (11715873_a_at) / RFU LOC100653217 /// NTM (11731650_a_at) / Fold change /veh LOC100653217 /// NTM (11731650_a_at) / RFU MAPK11 (11762145_a_at) / Fold change /veh MAPK11 (11762145_a_at) / RFU FIZ1 (11724087_x_at) / Fold change /veh FIZ1 (11724087_x_at) / RFU OASL (11726364_x_at) / Fold change /veh OASL (11726364_x_at) / RFU SOX15 (11748057_x_at) / Fold change /veh SOX15 (11748057_x_at) / RFU CD79A (11719716_a_at) / Fold change /veh CD79A (11719716_a_at) / RFU HIST1H1D (11736915_at) / Fold change /veh HIST1H1D (11736915_at) / RFU CASKIN2 (11723855_a_at) / Fold change /veh CASKIN2 (11723855_a_at) / RFU LOC730098 (11760151_x_at) / Fold change /veh LOC730098 (11760151_x_at) / RFU OR4N2 (11742367_at) / Fold change /veh OR4N2 (11742367_at) / RFU PRRT2 (11749266_a_at) / Fold change /veh PRRT2 (11749266_a_at) / RFU SNX32 (11753110_a_at) / Fold change /veh SNX32 (11753110_a_at) / RFU CDHR5 (11726645_a_at) / Fold change /veh CDHR5 (11726645_a_at) / RFU RCAN1 (11760418_a_at) / Fold change /veh RCAN1 (11760418_a_at) / RFU FAM167A (11723789_a_at) / Fold change /veh FAM167A (11723789_a_at) / RFU FAM26E (11764081_at) / Fold change /veh FAM26E (11764081_at) / RFU ISYNA1 (11749810_s_at) / Fold change /veh ISYNA1 (11749810_s_at) / RFU ACY1 (11761880_at) / Fold change /veh ACY1 (11761880_at) / RFU 11764098_at / Fold change /veh 11764098_at / RFU SAMD14 (11745864_x_at) / Fold change /veh SAMD14 (11745864_x_at) / RFU NPB (11741838_a_at) / Fold change /veh NPB (11741838_a_at) / RFU TMPRSS6 (11731388_a_at) / Fold change /veh TMPRSS6 (11731388_a_at) / RFU KRTAP10-2 (11738614_at) / Fold change /veh KRTAP10-2 (11738614_at) / RFU ARHGAP8 /// PRR5-ARHGAP8 (11727945_x_at) / Fold change /veh ARHGAP8 /// PRR5-ARHGAP8 (11727945_x_at) / RFU KRTAP5-7 /// NADSYN1 (11734609_at) / Fold change /veh KRTAP5-7 /// NADSYN1 (11734609_at) / RFU RASL12 (11751679_a_at) / Fold change /veh RASL12 (11751679_a_at) / RFU CDKN2B (11736163_a_at) / Fold change /veh CDKN2B (11736163_a_at) / RFU PRF1 (11729649_at) / Fold change /veh PRF1 (11729649_at) / RFU, ZNF638 /// ZNF638-IT1 / Fold change vs veh, ZNF638 /// ZNF638-IT1 / RFU, PANK3 / Fold change vs veh, PANK3 / RFU, SH3YL1 / Fold change vs veh, SH3YL1 / RFU, ZEB2 / Fold change vs veh, ZEB2 / RFU, NRIP1 / Fold change vs veh, NRIP1 / RFU, PTTG1IP / Fold change vs veh, PTTG1IP / RFU, CAPN2 / Fold change vs veh, CAPN2 / RFU, MED14 / Fold change vs veh, MED14 / RFU, SNORA58 / Fold change vs veh, SNORA58 / RFU, C1orf63 / Fold change vs veh, C1orf63 / RFU, LRRFIP1 / Fold change vs veh, LRRFIP1 / RFU, NDUFAF7 / Fold change vs veh, NDUFAF7 / RFU, SLC12A2 / Fold change vs veh, SLC12A2 / RFU, IBTK / Fold change vs veh, IBTK / RFU, ESF1 / Fold change vs veh, ESF1 / Fold change vs veh, TMEM50B / RFU, TAOK1 / Fold change vs veh, TAOK1 / RFU, ACBD3 / Fold change vs veh, ACBD3 / RFU, TMA16 / Fold change vs veh, TMA16 / RFU, RWDD3 / Fold change vs veh, RWDD3 / RFU, BCAT1 / Fold change vs veh, BCAT1 / RFU, EDEM3 / Fold change vs veh, EDEM3 / RFU, TMEM33 / Fold change vs veh, TMEM33 / RFU, WDR75 / Fold change vs veh, WDR75 / RFU, AHCTF1 / Fold change vs veh, AHCTF1 / RFU, TFRC / Fold change vs veh, TFRC / RFU, ZDHHC17 / Fold change vs veh, ZDHHC17 / RFU, NOM1 / Fold change vs veh, NOM1 / RFU, ARL8B / Fold change vs veh, ARL8B / RFU, ZBTB11 / Fold change vs veh, ZBTB11 / RFU, TAMM41 / Fold change vs veh, TAMM41 / RFU, KIAA1704 /// LOC100996395 / Fold change vs veh, KIAA1704 /// LOC100996395 / RFU, ING1 / Fold change vs veh, ING1 / RFU, TRMT61B / Fold change vs veh, TRMT61B / RFU, FUBP3 / Fold change vs veh, FUBP3 / RFU, TP53 / Fold change vs veh, TP53 / RFU, TNKS2 / Fold change vs veh, TNKS2 / RFU, ZFP14 / Fold change vs veh, ZFP14 / RFU, ACTR2 / Fold change vs veh, ACTR2 / RFU, PPP3R1 / Fold change vs veh, PPP3R1 / RFU, PIK3R1 / Fold change vs veh, PIK3R1 / RFU, HNRNPA1 / Fold change vs veh, HNRNPA1 / RFU, RNF170 / Fold change vs veh, RNF170 / RFU, ZNF28 / Fold change vs veh, ZNF28 / RFU, RNGTT / Fold change vs veh, RNGTT / RFU, OGT / Fold change vs veh, OGT / RFU, BRD1 / Fold change vs veh, BRD1 / RFU, MARS / Fold change vs veh, MARS / RFU, ZNF655 / Fold change vs veh, ZNF655 / RFU, FAHD1 / Fold change vs veh, FAHD1 / RFU, BDP1 / Fold change vs veh, BDP1 / RFU, LRRCC1 / Fold change vs veh, LRRCC1 / RFU, ARID1A / Fold change vs veh, ARID1A / RFU, ZNF146 / Fold change vs veh, ZNF146 / RFU, ZNF330 / Fold change vs veh, ZNF330 / RFU, GPN3 / Fold change vs veh, GPN3 / RFU, C9orf123 / Fold change vs veh, C9orf123 / RFU, N4BP2L2 / Fold change vs veh, N4BP2L2 / RFU, ARFIP1 / Fold change vs veh, ARFIP1 / RFU, FAM179B / Fold change vs veh, FAM179B / RFU, BCL10 / Fold change vs veh, BCL10 / RFU, UHRF1BP1L / Fold change vs veh, UHRF1BP1L / RFU, BET1 / Fold change vs veh, BET1 / RFU, CNOT2 / Fold change vs veh, CNOT2 / RFU, ZNF268 / Fold change vs veh, ZNF268 / Fold change vs veh, ZNF507 / RFU, DGCR2 / Fold change vs veh, DGCR2 / RFU, WDSUB1 / Fold change vs veh, WDSUB1 / Fold change vs veh, HSP90B1 /// MIR3652 / RFU, ADSS / Fold change vs veh, ADSS / RFU, GK / Fold change vs veh, GK / RFU, ZNF148 / Fold change vs veh, ZNF148 / RFU, TAF9 / Fold change vs veh, TAF9 / RFU, SLC1A5 / Fold change vs veh, SLC1A5 / RFU, SLMO2 / Fold change vs veh, SLMO2 / RFU, ABCC4 / Fold change vs veh, ABCC4 / RFU, LOC101060439 /// RAP1B / Fold change vs veh, LOC101060439 /// RAP1B / RFU, RFX7 / Fold change vs veh, RFX7 / RFU, GTPBP10 / Fold change vs veh, GTPBP10 / RFU, CNEP1R1 / Fold change vs veh, CNEP1R1 / RFU, BIVM-ERCC5 /// ERCC5 / Fold change vs veh, BIVM-ERCC5 /// ERCC5 / RFU, ILF3 / Fold change vs veh, ILF3 / RFU 11762660_at / Fold change /veh 11762660_at / RFU VCAN (11757783_s_at) / Fold change /veh VCAN (11757783_s_at) / RFU DDX43 (11728927_at) / Fold change /veh DDX43 (11728927_at) / RFU KRT8 (11758188_x_at) / Fold change /veh KRT8 (11758188_x_at) / RFU NKD1 (11759106_at) / Fold change /veh NKD1 (11759106_at) / RFU SRD5A1 (11742802_a_at) / Fold change /veh SRD5A1 (11742802_a_at) / RFU TPSAB1 /// TPSB2 (11721975_s_at) / Fold change /veh TPSAB1 /// TPSB2 (11721975_s_at) / RFU GSTM3 (11746129_a_at) / Fold change /veh GSTM3 (11746129_a_at) / RFU IL23R (11737362_x_at) / Fold change /veh IL23R (11737362_x_at) / RFU TMEM51 (11727254_a_at) / Fold change /veh TMEM51 (11727254_a_at) / RFU PIWIL2 (11732686_x_at) / Fold change /veh PIWIL2 (11732686_x_at) / RFU ORM1 (11744905_x_at) / Fold change /veh ORM1 (11744905_x_at) / RFU CCDC152 (11743942_at) / Fold change /veh CCDC152 (11743942_at) / RFU ECM1 (11717891_a_at) / Fold change /veh ECM1 (11717891_a_at) / RFU IL23R (11748794_a_at) / Fold change /veh IL23R (11748794_a_at) / RFU TNFAIP8L3 (11732012_x_at) / Fold change /veh TNFAIP8L3 (11732012_x_at) / RFU MBOAT4 (11741988_at) / Fold change /veh MBOAT4 (11741988_at) / RFU 11764193_at / Fold change /veh 11764193_at / RFU TMEM53 (11763286_at) / Fold change /veh TMEM53 (11763286_at) / RFU MAGEB2 (11727129_at) / Fold change /veh MAGEB2 (11727129_at) / RFU TMEM200A (11744735_a_at) / Fold change /veh TMEM200A (11744735_a_at) / RFU CCDC152 (11751479_a_at) / Fold change /veh CCDC152 (11751479_a_at) / RFU FAM211A (11726209_a_at) / Fold change /veh FAM211A (11726209_a_at) / RFU RGS16 (11746705_a_at) / Fold change /veh RGS16 (11746705_a_at) / RFU VCAN (11755009_s_at) / Fold change /veh VCAN (11755009_s_at) / RFU RHOB (11743442_s_at) / Fold change /veh RHOB (11743442_s_at) / RFU RGS16 (11720943_a_at) / Fold change /veh RGS16 (11720943_a_at) / RFU RGS16 (11720944_at) / Fold change /veh RGS16 (11720944_at) / RFU, VPS4B / Fold change vs veh, VPS4B / RFU, CREB1 / Fold change vs veh, CREB1 / RFU, DNAJC13 / Fold change vs veh, DNAJC13 / RFU, GNAQ / Fold change vs veh, GNAQ / RFU, CDK5R1 / Fold change vs veh, CDK5R1 / RFU, ZRANB3 / Fold change vs veh, ZRANB3 / RFU, CUL4A / Fold change vs veh, CUL4A / RFU, CCNY / Fold change vs veh, CCNY / RFU, UFL1 / Fold change vs veh, UFL1 / RFU, COG3 / Fold change vs veh, COG3 / RFU, DIAPH2 / Fold change vs veh, DIAPH2 / RFU, SKA2 / Fold change vs veh, SKA2 / RFU, AFF3 / Fold change vs veh, AFF3 / RFU, LMF1 / Fold change vs veh, LMF1 / RFU, IPO11 / Fold change vs veh, IPO11 / RFU, DFFB / Fold change vs veh, DFFB / RFU, FOXP1 / Fold change vs veh, FOXP1 / RFU, CARD8 / Fold change vs veh, CARD8 / RFU, STRN3 / Fold change vs veh, STRN3 / RFU, ADK / Fold change vs veh, ADK / RFU, RASSF2 / Fold change vs veh, RASSF2 / RFU, WIPF1 / Fold change vs veh, WIPF1 / RFU, LARP1B / Fold change vs veh, LARP1B / RFU, RASA1 / Fold change vs veh, RASA1 / RFU, RB1 / Fold change vs veh, RB1 / RFU, PPFIA1 / Fold change vs veh, PPFIA1 / RFU, MAT2A / Fold change vs veh, MAT2A / RFU, CCT5 / Fold change vs veh, CCT5 / RFU, WDR92 / Fold change vs veh, WDR92 / RFU, CUX1 / Fold change vs veh, CUX1 / RFU, TTC7A / Fold change vs veh, TTC7A / RFU, TMEM135 / Fold change vs veh, TMEM135 / RFU, DEPTOR / Fold change vs veh, DEPTOR / RFU, CPM / Fold change vs veh, CPM / RFU, DNAJB6 / Fold change vs veh, DNAJB6 / RFU, CACNA2D3 / Fold change vs veh, CACNA2D3 / RFU, DTX4 / Fold change vs veh, DTX4 / RFU, TFCP2 / Fold change vs veh, TFCP2 / RFU, GMCL1 /// GMCL1P1 / Fold change vs veh, GMCL1 /// GMCL1P1 / RFU, AEBP2 / Fold change vs veh, AEBP2 / RFU, SNHG1 /// SNORD22 /// SNORD25 /// SNORD26 /// SNORD27 /// SNORD28 /// SNORD29 /// SNORD31 / Fold change vs veh, SNHG1 /// SNORD22 /// SNORD25 /// SNORD26 /// SNORD27 /// SNORD28 /// SNORD29 /// SNORD31 / Fold change (Aza/veh), C12orf56 (ProbeSet 11735607_a_at) / Fold change (ACY-1035/veh), C12orf56 (ProbeSet 11735607_a_at) / Fold change (Aza/veh), FGFR1OP (ProbeSet 11751329_s_at) / Fold change (ACY-1035/veh), FGFR1OP (ProbeSet 11751329_s_at) / Fold change (Aza/veh), VPS36 (ProbeSet 11739960_a_at) / Fold change (ACY-1035/veh), VPS36 (ProbeSet 11739960_a_at) / RFU SYPL1 (11715823_x_at) / Fold change /veh SYPL1 (11715823_x_at) / RFU IGFBP7 (11715501_s_at) / Fold change /veh IGFBP7 (11715501_s_at) / RFU REEP3 (11722064_at) / Fold change /veh REEP3 (11722064_at) / RFU IGLL1 (11728026_x_at) / Fold change /veh IGLL1 (11728026_x_at): dose or concentration left out as unconfirmed
# Settings: ProbeSet 11747888_a_at; LIST D
compound,measurement,value
Nc1ccc(-c2cccs2)cc1NC(=O)c1ccc2c(c1)cc(C1CC1)n2CCN1CCOCC1 [ACY-1035],"Fold change vs veh, SH3YL1",0.93
